Entries after “also recorded” stand apart in the source; their conditions may differ.
Experiments:
MRGPRX4 [1] = biological target: T1, MRGPRX4 (Homo sapiens, UniProt Q96LA9); test: In vitro activation (agonism) of MRGPRX4, IP-One Gq HTRF assay; type: cell-based
Method: Metabolites of heme (bilirubin, biliverdin, urobilin, urobilinogen, and stercobilin) were analyzed for in vitro activation of MRGPRX4. Cells were plated in a 384-well assay plate at 20,000 cells per well in 12 μL of Opti-MEM and kept in an incubator overnight. On the day of the assay, different agonists solubilized at 10 mM in 0.1% NaOH were added as a 10-point curve ([…] final top concentration with 1:3 serial dilutions) using a Tecan D300E digital dispenser. Agonists were diluted in assay buffer (final concentrations of 5.7 mM Tris-HCl, 43 mM NaCl, 50 mM LiCl, pH=8) and 2 μL of the appropriate agonist are added to each well. Plates were incubated in the dark for 1 h at 37° C. and then for 30 minutes at room temperature. IP-1 standards and HTRF detection reagents were added according to the IP-One—Gq Kit purchased from Cisbio (part number 62IPAPEJ) and incubated in the dark for 1 h at room temperature. The plate was read on a Molecular Devices SpectraMax iD5 plate reader. The HTRF ratio was calculated from the raw data and graphed using GraphPad Prism to calculate an IC50 value for each compound.

MRGPRX4 [2] = biological target: T1, MRGPRX4; test: Agonism of MRGPRX4 by bilirubin and urobilin samples after 24 h storage; type: cell-based; conditions: 24 h at room temperature under blue light; FIG. 4B
Method: Samples were evaluated after 24 hours and the percent remaining of urobilin and bilirubin, relative to a time zero standard, were determined by measurement of the degradation of the analyte contained in the samples as determined by tandem mass spectroscopy (LC MS/MS). The samples (at 24 h) were also evaluated for their ability to agonize MRGPRX4.

wild type mice = test: Mouse itch study, scratching bouts after subcutaneous pruritogen (SCLABA); type: in vivo; conditions: SC injection on the neck, 30 min recording, FIG. 2A-2B
Method: The ability of urobilin to induce itch in wild type mice was also tested. Typical mouse itch studies occurred as follows: C57B6J male mice were multiple-housed in a normal light cycle (6 am on; […]) under temperature and humidity-controlled conditions. The mice were handled and habituated to test chambers before testing, then placed in individual SCLABA test chambers. After 20 minutes, the mice were dosed PO with vehicle (saline, pH 7-8). After 30 minutes, the pruritogen of study ([…] in saline) or saline is given subcutaneously (SC) on the neck on the midline behind the ears. Video was recorded from the first pruritogen injection for 30 minutes using the SCLABA system. Scratching bouts were scored from SCLABA thumbnails using 12/45/85/100 waveform criteria. Group sizes were typically 9-10 animals per group.

T1 sequence (Q96LA9 whole entry): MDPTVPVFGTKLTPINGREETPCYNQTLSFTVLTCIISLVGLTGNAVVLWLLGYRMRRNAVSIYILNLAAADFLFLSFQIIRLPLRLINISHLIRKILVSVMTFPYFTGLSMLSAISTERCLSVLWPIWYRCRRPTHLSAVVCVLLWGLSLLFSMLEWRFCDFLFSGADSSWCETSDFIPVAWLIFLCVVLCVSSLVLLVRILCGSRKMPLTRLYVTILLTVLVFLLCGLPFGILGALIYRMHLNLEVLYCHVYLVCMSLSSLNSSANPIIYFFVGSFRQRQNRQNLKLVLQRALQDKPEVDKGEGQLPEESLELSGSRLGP

CC[C@H]1[C@@H](O)[C@@H]2[C@H](CC[C@]3(C)[C@@H]([C@H](C)CCO)CC[C@@H]23)[C@@]2(C)CC[C@@H](O)C[C@@H]12 [BAR502]
EC50 (MRGPRX4 [1]; read-out: agonist activity against MRGPRX4): 5.7 µM

CCC1=C(C)C(CC2=N/C(=C\c3[nH]c(CC4NC(=O)C(C)=C4CC)c(C)c3CCC(=O)O)C(CCC(=O)O)=C2C)NC1=O (stereo not shown) [Urobilin, urobilin]
agonist activity on MRGPRX4 after storage, relative to the other three groups (MRGPRX4 [2]): very little agonist activity
efficacy at activating MRGPRX4 relative to bilirubin (MRGPRX4 [1]; FIG. 1, compared with bilirubin): at least 10 fold
induction of scratch response in mice (wild type mice): induced scratch response in mice in a dose dependent manner; also recorded: potent inducer of scratch response in mice
